Test results published in the supplement of paper PMC3974653.
Where a name gives a salt, the structure may show the parent alone.

What follows are molecules tested on MTT (mouse pheochromocytoma) (assay: IC50 of cell viability (ATP content)). Conditions: (24 or 48 h).
Summary of the method: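 After overnight culture at 37°C, 5% CO2 in white 1536-well plates, MTT mouse pheochromocytoma cells were given 23 nl of library compound in DMSO by pintool across 8 concentrations, spanning final 0.5 nM to 46 µM. Following 24 or 48 hrs, CellTiter-Glo luminescence was read after 15 minutes and normalised against positive-control (100%) and DMSO (0%) wells. A four-parameter logistic model provided the IC50.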

SMILES	IC50 of cell viability
N=C(N)NCCCCNC(=N)N.O=[S+]([O-])(O)O [ARCAINE SULFATE]	> 46 µM
C=C1Nc2ccccc2C(=O)N1c1ccccc1C [METHAQUALONE]	> 46 µM
[Na+].CCN1CCN(C(=O)NC(C(=O)NC2C3SC\C(=C(/N3C2=O)C([O-])=O)CSC4=NN=N[N]4C)C5=CC=C(O)C=C5)C(=O)C1=O (stereo not given) [CEFOPERAZONE SODIUM]	> 46 µM
O=C(OOC(=O)c1ccccc1)c1ccccc1 [Benzoyl peroxide]	> 46 µM
CCC(=O)OCC(=O)C1(OC(=O)CC)C(C)CC2C3CCC/4=C/C(=O)/C=C\C4(C)C3(Cl)C(O)CC12C (stereo not given) [Beclazone]	> 46 µM
O=C(O)CCCOc1ccc(Cl)cc1Cl [4-(2,4-Dichlorophenoxy)butyric acid]	> 46 µM
C[N+]1(C)CCCCC1COC(=O)C(O)(c1ccccc1)c1ccccc1 (stereo not given) [BEVONIUM METHYLSULFATE]	> 46 µM
O=C1Nc2ccc(Cl)cc2C(c2ccccc2Cl)=NC1O (stereo not given) [Lorazepam]	> 46 µM
C=CC[C@]1(O)CCC2C3CCC4=CCCCC4C3CCC21C (stereo not given in full) [Allylestrenol]	> 46 µM
CCCCNc1cc(C(=O)O)cc([S+](N)(=O)[O-])c1Oc1ccccc1 [Bumetanide]	> 46 µM
Nc1ccc(O)cc1 [4-Aminophenol]	> 46 µM
CC[NH+](CC)CCOC(=O)c1ccc(N)cc1Cl [CHLOROPROCAINE HYDROCHLORIDE]	> 46 µM
CC(C)(C#N)c1cc(Cn2cncn2)cc(C(C)(C)C#N)c1 [Anastrozole]	> 46 µM
C[C@@H](Cc1ccccc1)NCCC(c1ccccc1)c1ccccc1.C[C@H](O)C(=O)O [Prenylamine lactate]	> 46 µM
NC(=O)N/N=C/c1ccc([N+](=O)[O-])o1 [5-Nitro-2-furaldehyde semicarbazone]	> 46 µM
[O-]C(=O)C/1=C(/CS[C@@H]2[C@H](NC(=O)C[N]3C=NN=N3)C(=O)N12)CSC4=NN=CS4 [CEFTEZOLE SODIUM]	> 46 µM
Nc1c(Br)cc(Br)cc1CNC1CCC(O)CC1 (stereo not given) [AMBROXOL HYDROCHLORIDE]	> 46 µM
OC(=O)\C1=C\N(C2CC2)C3=CC(=C(F)C=C3C1=O)N4CCNCC4 [Ciprofloxacin hydrochloride]	> 46 µM
CN(C)CCc1ccc(O)cc1 [HORDENINE]	> 46 µM
OCC(O)COc1ccc(Cl)cc1 (stereo not given) [3-(4-CHLOROPHENOXY)-1,2-PROPANEDIOL]	> 46 µM
CC/C=C\C/C=C\C/C=C\C/C=C\C/C=C\C/C=C\CCC(=O)O [DOCOSAHEXAENOIC ACID]	> 46 µM
CC1(C)SC2C(NC(=O)C(N)c3ccccc3)C(=O)N2C1C(=O)O (stereo not given) [Ampicillin A]	> 46 µM
c1ccc2c(c1)sc1ccccc12 [DIBENZOTHIOPHENE]	> 46 µM
CCOC(=O)CCC(=O)OC1C(OC2C(C)C(OC3CC(C)(OC)C(O)C(C)O3)C(C)C(=O)OC(CC)C(C)(O)C(O)C(C)C(=O)C(C)CC2(C)O)OC(C)CC1N(C)C (stereo not given) [Erythromycin ethyl succinate]	> 46 µM
C#C[C@]1(O)CC[C@H]2[C@@H]3CCC4=CC(=O)CCC4(C)[C@H]3CCC21C (stereo not given in full) [ETHISTERONUM]	> 46 µM
CC(C)=CCN1CC[C@@]2(C)c3cc(O)ccc3C[C@H]1[C@@H]2C [(+)-Pentazocine]	> 46 µM
OC(=O)C/1=C/C(=O)C2=C(O1)C=CC=C2 [CHROMOCARB]	> 46 µM
CC(C)/N=c1\cc2n(-c3ccc(Cl)cc3)c3ccccc3nc-2cc1Nc1ccc(Cl)cc1 [Clofazimine]	> 46 µM
CCCCC(CC)COC(=O)c1ccccc1C(=O)OCC(CC)CCCC (stereo not given) [Di(2-ethylhexyl) phthalate]	> 46 µM

Further lines, results first:

IC50 of cell viability	SMILES
> 46 µM	CC[C@H]1OC(=O)[C@H](C)[C@@H](OC2CC(C)(OC)C(O)C(C)O2)[C@H](C)[C@@H](OC2OC(C)CC(N(C)C)C2O)[C@](C)(O)C[C@@H](C)/C(=N\OCOCCOC)[C@H](C)[C@@H](O)[C@]1(C)O (stereo not given in full) [Roxithromycin]
> 46 µM	CO[C@H]1[C@@H](O[C@@H]2O[C@@H](C)[C@@H](O[C@H]3C[C@](C)(O)[C@H](OC(=O)CC(C)C)[C@H](C)O3)[C@@H](N(C)C)[C@H]2O)[C@H](CC=O)C[C@@H](C)[C@@H](O)/C=C\C=C/C[C@@H](C)OC(=O)C[C@H]1OC(C)=O [Josamycin]
> 46 µM	CCCc1cc(C(N)=S)ccn1 [PROTHIONAMIDE]
> 46 µM	C[C@@H](C(=O)O)c1cccc(C(=O)c2ccccc2)c1 [Ketoprofen]
> 46 µM	CCN(CC)CCNC(=O)c1cc([S+](C)(=O)[O-])ccc1OC [Tiapride hydrochloride]
> 46 µM	CCOc1ccccc1OC(c1ccccc1)C1CNCCO1 (stereo not given) [Reboxetine mesylate]
> 46 µM	O=C(CS)Nc1ccccc1 [Thioglycolic acid anilide]
> 46 µM	Cc1ccc(C(=O)c2cc(O)c(O)c([N+](=O)[O-])c2)cc1 [TOLCAPONE]
> 46 µM	C#CCN[C@@H]1CCc2ccccc21 [RASAGILINE MESYLATE]
> 46 µM	CCCCCCCCOc1ccc(C(=O)c2ccccc2)c(O)c1 [OCTABENZONUM]
> 46 µM	CN(C)C/C=C(/c1ccc(Br)cc1)c1cccnc1.Cl.Cl [Zimelidine dihydrochloride]
> 46 µM	COc1ccc(C(=O)CCC(=O)O)c2ccccc12 [Menbutone]
> 46 µM	CN(CC1=CC2=C(N\C(=N/C2=O)C)C=C1)C3=CC=C(S3)C(=O)N[C@@H](CCC(O)=O)C(O)=O [Raltitrexed]
> 46 µM	O=C(O)Cc1ccc(OCCNC[C@H](O)c2ccccc2)cc1 [ZD 2079]
> 46 µM	O=[S+]1([O-])OC(c2ccc(O)cc2)(c2ccc(O)cc2)c2ccccc21 [Fenolipuna]
> 46 µM	CCCC[C@H](CC)CN1CN(C[C@@H](CC)CCCC)CC(C)(N)C1 [Hexetidine]
> 46 µM	CN1CCN(CC(=O)N2c3ccccc3C(=O)Nc3cccnc32)CC1 [PIRENZEPINE]
> 46 µM	CC12C=CC(=O)C=C1CCC1C2C(O)CC2(C)C1CCC2(O)C(=O)COC(=O)CCC(=O)O (stereo not given) [Prednisolone 21-hemisuccinate]
> 46 µM	O=C(OCc1ccccc1)c1ccc(O)cc1 [benzyl 4-hydroxybenzoate]
> 46 µM	NC(N)=O [Urea]
> 46 µM	CCCCCCCCNC(C)C(O)c1ccc(SC(C)C)cc1 (stereo not given) [SULOCTIDIL]
> 46 µM	Nc1ccc([S+](=O)([O-])Nc2ccnn2-c2ccccc2)cc1 [Sulfaphenazole]
> 46 µM	NCCNCCNCCN [Triethylenetetramine]
> 46 µM	NC(CO)(CO)CO [TROMETHAMINE]
> 46 µM	CCCCCN(C)CC[C@@](O)(P(=O)([O-])O)P(=O)(O)O [IBANDRONATE SODIUM]
> 46 µM	CC(=O)N(CC(O)CO)c1c(I)c(C(=O)NCCO)c(I)c(C(=O)NCC(O)CO)c1I (stereo not given) [Ioxilan]
